From patent publication US20230266309A1, “PROTEIN MICROARRAY, USE AND DETECTION METHOD THEREOF” (NATIONAL CHENG KUNG UNIVERSITY, priority 2021, published 2023)

Target: T1, S proteins of wild-type SARS-CoV-2 virus and the SARS-CoV-2 D614G, B.1.1.7, B.1.351, P1, B.1.617, B.1.617.1, B.1.617.2, and B.1.617.3 variants (Homo sapiens, UniProt Q9BYF1)
T1 construct: purchased Sino Biological Inc. (Mainland China)
Assay type: binding
Conditions: FIG. 10; for ACE2 binding to the S protein: SARS-CoV-2 B.1.617.3 variant (excepted from the dose-dependent decrease); for ACE2 binding to the S proteins: wild-type and D614G, B.1.1.7, B.1.351, P1, B.1.617, B.1.617.1, B.1.617.2 variants

T1 sequence (Q9BYF1 18-740, stated change not applied): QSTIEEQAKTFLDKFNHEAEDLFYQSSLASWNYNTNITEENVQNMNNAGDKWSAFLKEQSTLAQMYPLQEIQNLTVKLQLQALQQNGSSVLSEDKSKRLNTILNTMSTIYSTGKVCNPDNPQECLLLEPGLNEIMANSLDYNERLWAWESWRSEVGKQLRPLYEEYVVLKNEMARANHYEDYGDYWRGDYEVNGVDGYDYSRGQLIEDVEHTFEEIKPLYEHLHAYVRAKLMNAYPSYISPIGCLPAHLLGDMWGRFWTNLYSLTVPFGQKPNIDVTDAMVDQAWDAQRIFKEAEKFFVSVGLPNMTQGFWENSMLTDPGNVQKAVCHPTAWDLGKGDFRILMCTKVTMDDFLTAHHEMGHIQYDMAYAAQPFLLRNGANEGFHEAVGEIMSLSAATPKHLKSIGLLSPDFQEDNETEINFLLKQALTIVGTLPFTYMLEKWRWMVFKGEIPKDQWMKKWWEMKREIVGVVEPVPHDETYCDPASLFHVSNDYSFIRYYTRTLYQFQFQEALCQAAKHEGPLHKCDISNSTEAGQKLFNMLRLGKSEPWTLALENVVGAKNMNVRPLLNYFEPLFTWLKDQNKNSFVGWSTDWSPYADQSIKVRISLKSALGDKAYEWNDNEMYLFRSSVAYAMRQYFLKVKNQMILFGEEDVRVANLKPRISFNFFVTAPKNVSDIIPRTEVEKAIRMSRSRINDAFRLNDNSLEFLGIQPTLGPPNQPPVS

CCC[C@H](N[C@@H](C)C(=O)N1[C@H](C(=O)O)C[C@@H]2CCCC[C@@H]21)C(=O)OCC [Perindopril]
ACE2 binding to the S protein: except for the SARS-CoV-2 B.1.617.3 variant | ACE2 binding to the S proteins: dose-dependently decrease

CCOC(=O)[C@H](CCc1ccccc1)N[C@@H](C)C(=O)N1[C@H](C(=O)O)C[C@@H]2CCC[C@@H]21 [Ramipril]
ACE2 binding to the S protein: except for the SARS-CoV-2 B.1.617.3 variant | ACE2 binding to the S proteins: dose-dependently decrease
